The text below walks through data of paper PMC4904246 (Journal of Medicinal Chemistry, 2016).

≈ marks a conversion by molar mass, not a printed value. Marks after values point to notes of the source that are not given here.

The nature of series [1]: kinetic aqueous solubility by nephelometry. The class given is physicochemical. Particulars: pH 6.5 phosphate buffer, pH 6.5.
Series [2] can be described thus: in vitro metabolism, human liver microsomes. The class given is in vitro ADME. The settings on record: human, pooled human liver microsomes. On the technique in general: Microsomes from liver hold many membrane-bound enzymes, among them those of drug oxidation.
The nature of series [3]: plasma protein binding by ultracentrifugation, human plasma. The series is classed as in vitro ADME.
The nature of series [4]: plasma protein binding by ultracentrifugation, rat plasma. The series is classed as in vitro ADME.
Series [5] in a line: plasma protein binding by ultracentrifugation, mouse plasma. The class given is in vitro ADME.
In series [6] the target is T1, PvDHODH (Plasmodium vivax, UniProt A5K1N1).
T1 sequence (A5K1N1 160-572): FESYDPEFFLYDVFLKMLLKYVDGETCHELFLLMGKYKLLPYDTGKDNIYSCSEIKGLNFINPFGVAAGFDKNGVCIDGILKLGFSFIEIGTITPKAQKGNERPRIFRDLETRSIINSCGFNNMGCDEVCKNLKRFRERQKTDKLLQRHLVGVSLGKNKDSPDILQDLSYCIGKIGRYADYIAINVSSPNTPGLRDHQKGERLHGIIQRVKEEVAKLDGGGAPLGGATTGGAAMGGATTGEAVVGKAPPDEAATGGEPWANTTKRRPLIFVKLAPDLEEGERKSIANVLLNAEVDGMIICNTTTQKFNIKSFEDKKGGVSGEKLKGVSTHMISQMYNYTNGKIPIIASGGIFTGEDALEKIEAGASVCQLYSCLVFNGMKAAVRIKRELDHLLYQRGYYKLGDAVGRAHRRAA
Particulars: PvDHODH IC50 higher than PfDHODH IC50.

Series [7] has as its system P. falciparum Pf3D7_0087/N9 parasites. The settings on record: for AUCED90: total blood AUC at the ED90, Day 1 pharmacokinetic data, QD, only two dose levels.
Series [8] is described as follows: in vivo. Particulars: Sprague-Dawley, rat, plasma, iv.
The target of series [9] is dog DHODH (Canis lupus familiaris, UniProt A0A8I3MWX2). The experiment in a line: biochemical.
Series [10] addresses hDHODH (Homo sapiens, UniProt Q02127). Particulars: read-out: hDHODH IC50.
The target in series [11] is T1, PvDHODH. The settings on record: read-out: PvDHODH IC50; previous reports; 2 from 15, 3 from 16; cited from earlier work.
The conditions of series [12]: scaled; cited from earlier work.
The conditions of series [13]: pH 6.5, 30 min at room temperature; cited from earlier work.

Chain of dog DHODH (A0A8I3MWX2 1-406): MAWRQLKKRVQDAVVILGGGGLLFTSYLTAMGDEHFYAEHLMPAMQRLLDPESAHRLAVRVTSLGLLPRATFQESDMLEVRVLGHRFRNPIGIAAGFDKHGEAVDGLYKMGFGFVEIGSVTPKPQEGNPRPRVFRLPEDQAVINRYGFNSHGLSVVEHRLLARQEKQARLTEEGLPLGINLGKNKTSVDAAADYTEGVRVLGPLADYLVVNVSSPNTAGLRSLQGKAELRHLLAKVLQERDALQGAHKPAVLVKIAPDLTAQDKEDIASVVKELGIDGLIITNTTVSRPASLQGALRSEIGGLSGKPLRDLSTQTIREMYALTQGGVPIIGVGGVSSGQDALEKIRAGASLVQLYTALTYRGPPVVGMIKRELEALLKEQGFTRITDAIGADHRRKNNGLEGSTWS
Chain of hDHODH (Q02127 31-395 limits assumed): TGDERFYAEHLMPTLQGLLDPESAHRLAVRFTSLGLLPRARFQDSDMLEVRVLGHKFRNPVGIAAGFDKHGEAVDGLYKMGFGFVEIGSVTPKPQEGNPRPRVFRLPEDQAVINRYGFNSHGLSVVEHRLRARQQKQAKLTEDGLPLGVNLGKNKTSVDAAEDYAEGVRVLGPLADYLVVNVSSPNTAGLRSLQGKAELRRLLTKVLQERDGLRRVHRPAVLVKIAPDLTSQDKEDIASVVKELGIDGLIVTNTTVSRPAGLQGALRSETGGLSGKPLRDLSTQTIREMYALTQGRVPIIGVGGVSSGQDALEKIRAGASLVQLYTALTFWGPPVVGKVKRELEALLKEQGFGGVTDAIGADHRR

In general, kinetic solubility refers to solubility judged after dilution from a stock solution rather than from solid. By CLint scaled is commonly meant the capacity of the preparation to metabolise the compound, expressed as a volume cleared per time. For `Cc1cc(NC2CCc3cc(Br)ccc3C2)n2nc(C(C)(F)F)nc2n1` (centres unmarked) [Compound 12, 2-(1,1-Difluoroethyl)-N-(6-bromo-1,2,3,4-tetrahydronaphthalen-2-yl)-5-methyl-[1,2,4]triazolo[1,5-a]pyrimidin-7-amine], the kinetic solubility at 30 min in series [1] is 3.1 to 6.3 µg/mL (≈ 7.34 to 14.9 µM). In addition, in series [2], the CLint scaled at 1 μM is below 5.8 mL/min/kg.
The molecule `Cc1cc(NC2Cc3cccc(C(F)(F)F)c3C2)n2nc(C(C)(F)F)nc2n1` (centres unmarked) [Compound 36, 2-(1,1-Difluoroethyl)-5-methyl-N-(4-(trifluoromethyl)-2,3-dihydro-1H-inden-2-yl)-[1,2,4]triazolo[1,5-a]pyrimidin-7-amine] registered a kinetic solubility at 30 min in series [1] of 6.3 to 12.5 µg/mL (≈ 15.9 to 31.5 µM). Besides, in [2], the CLint scaled at 1 μM worked out at 25 mL/min/kg.
As usually defined, the clearance is the rate of elimination divided by the concentration. A high value points to a high capacity for elimination. As usually defined, the IC50 is the midpoint of a concentration-inhibition curve. In series [1], `Cc1cc(NC2CCc3cc(Cl)ccc3C2)n2nc(C(C)(F)F)nc2n1` (centres unmarked) [Compound 7, 2-(1,1-Difluoroethyl)-N-(6-chloro-1,2,3,4-tetrahydronaphthalen-2-yl)-5-methyl-[1,2,4]triazolo[1,5-a]pyrimidin-7-amine] showed a kinetic solubility at 30 min of 3.1 to 6.3 µg/mL (≈ 8.2 to 16.7 µM). For the same molecule, the “PPB human (% bound)” value in [3] is 98.8 % bound. For the same molecule, in [4], the “PPB rat (% bound)” value amounted to 99.2 % bound. Moreover, the “mouse PPB (% bound)” value in [5] (approximation based on rat and human plasma protein binding data) is listed as 99.2 ^c % bound. Also, the CLint scaled at 1 μM in series [2] was below 5.8 mL/min/kg. In series [6], the “difference of IC50 P. vivax DHODH versus PfDHODH” value is 5–8 fold. For the same molecule, the AUCED90 in series [7] is above 23 μM·h/day. The clearance in [8] stood at 3.5 mL/min/kg. This molecule also registered an IC50 in [9] above 100 µM.
For `Cc1cc(NC2CCc3ccc(Br)cc3C2)n2nc(C(C)(F)F)nc2n1` (centres unmarked) [Compound 14, 2-(1,1-Difluoroethyl)-N-(7-bromo-1,2,3,4-tetrahydronaphthalen-2-yl)-5-methyl-[1,2,4]triazolo[1,5-a]pyrimidin-7-amine], the IC50 in series [10] was above 100 µM.
Molecule `Cc1cc(NC2Cc3ccccc3C2)n2nc(C(C)(F)F)nc2n1` [Compound 26, 2-(1,1-Difluoroethyl)-N-(2,3-dihydro-1H-inden-2-yl)-5-methyl[1,2,4]triazolo[1,5-a]pyrim-idin-7-amine] came in with a solubility (kinetic) at 30 min in series [1] of 25 to 50 µg/mL (≈ 75.9 to 152 µM). The molecule further gave a CLint scaled at 1 μM in [2] of 20 mL/min/kg.
As for `Cc1cc(NC2CCc3cc(F)c(F)cc3C2)n2nc(C(C)(F)F)nc2n1` (centres unmarked) [Compound 19, 2-(1,1-Difluoroethyl)-N-(6,7-difluoro-1,2,3,4-tetrahydronaphthalen-2-yl)-5-methyl-[1,2,4]triazolo[1,5-a]pyrimidin-7-amine], the CLint scaled at 1 μM in series [2] was found to be 9.1 mL/min/kg.
As for `Cc1cc(Nc2ccc(C(F)(F)F)cc2)n2ncnc2n1` [Compound 3, (5-methyl[1,2,4]triazolo[1,5-a]pyrimidin-7-yl)(4-trifluoromethylphenyl)amine], the IC50 in series [11] was 2.6 µM. The “predicted in vivo CLint human” value in series [12] is 6.2/ND/ND mL/min/kg. Besides, the “kinetic solubility pH 6.5” value in series [13] is given as 6.3–12.5 μg/mL.
The molecule `Cc1cc(NC2Cc3ccc(Cl)cc3C2)n2nc(C(C)(F)F)nc2n1` (centres unmarked) [Compound 28, N-(5-Chloro-2,3-dihydro-1H-inden-2-yl)-2-(1,1-difluoroethyl)-5-methyl-[1,2,4]triazolo[1,5-a]pyrimidin-7-amine] showed a kinetic solubility at 30 min in series [1] of 6.3 to 12.5 µg/mL (≈ 17.3 to 34.4 µM). In series [2], this molecule returned a CLint scaled at 1 μM of 8.2 mL/min/kg.
Regarding `Cc1cc(NC2Cc3cc(F)c(F)cc3C2)n2nc(C(C)(F)F)nc2n1` [Compound 35, N-(5,6-Difluoro-2,3-dihydro-1H-inden-2-yl)-2-(1,1-difluoroethyl)-5-methyl-[1,2,4]triazolo[1,5-a]pyrimidin-7-amine], in series [1], the solubility (kinetic) at 30 min lay in the range of 6.3 to 12.5 µg/mL (≈ 17.2 to 34.2 µM). The “PPB human (% bound)” value in series [3] stood at 93.4 % bound. For the same molecule, the “PPB rat (% bound)” value in [4] was found to be 94.2 % bound. The “PPB mouse (% bound)” value in [5] (mouse plasma, ultracentrifugation) was 95.3 % bound. For the same molecule, in series [2], the CLint scaled at 1 μM is below 5.8 mL/min/kg. Also, the “difference of IC50 P. vivax DHODH versus PfDHODH” value in [6] was found to be 7 fold. For the same molecule, the ED90 in [7] (oral QD for 4 days) is recorded as above 30 mg/kg. In addition, the AUCED90 entry in series [7] is recorded as “∼137 μM·h/day”. Moreover, the IC50 in series [9] is above 100 µM.
Regarding `Cc1cc(NC2Cc3c(F)ccc(F)c3C2)n2nc(C(C)(F)F)nc2n1` [Compound 33, N-(4,7-Difluoro-2,3-dihydro-1H-inden-2-yl)-2-(1,1-difluoroethyl)-5-methyl-[1,2,4]triazolo[1,5-a]pyrimidin-7-amine], in [1], the kinetic solubility at 30 min fell in the range of 6.3 to 12.5 µg/mL (≈ 17.2 to 34.2 µM). This molecule also returned a CLint scaled at 1 μM in series [2] of 27 mL/min/kg.
With `Cc1cc(NC2Cc3cccc(F)c3C2)n2nc(C(C)(F)F)nc2n1` (centres unmarked) [Compound 34, 2-(1,1-Difluoroethyl)-N-(4-fluoro-2,3-dihydro-1H-inden-2-yl)-5-methyl-[1,2,4]triazolo[1,5-a]pyrimidin-7-amine], in [1], the solubility (kinetic) at 30 min was in the range of 12.5 to 25 µg/mL (≈ 36 to 72 µM). The same molecule registered a CLint scaled at 1 μM in [2] of 9.1 mL/min/kg.
In the case of `Cc1cc(NC2CCc3cc(C(F)(F)F)c(F)cc3C2)n2nc(C(C)(F)F)nc2n1` (centres unmarked) [Compound 21, 2-(1,1-Difluoroethyl)-N-(7-fluoro-6-(trifluoromethyl)-1,2,3,4-tetrahydro-naphthalen-2-yl)-5-methyl-[1,2,4]triazolo[1,5-a]pyrimidin-7-amine], the solubility (kinetic) at 30 min in series [1] fell in the range of 1.6 to 3.1 µg/mL (≈ 3.73 to 7.22 µM). In [2], this molecule registered a CLint scaled at 1 μM below 5.8 mL/min/kg.
`Cc1cc(NC2CCc3cc(F)c(C(F)(F)F)cc3C2)n2nc(C(C)(F)F)nc2n1` (centres unmarked) [Compound 20, 2-(1,1-Difluoroethyl)-N-(6-fluoro-7-(trifluoromethyl)-1,2,3,4-tetrahydronaphthalen-2-yl)-5-methyl-[1,2,4]triazolo[1,5-a]pyrimidin-7-amine]: in [1], the kinetic solubility at 30 min lay in the range of 3.1 to 6.3 µg/mL (≈ 7.22 to 14.7 µM). Also, the CLint scaled at 1 μM in series [2] is below 5.8 mL/min/kg.
`COc1ccc2c(c1)CC(Nc1cc(C)nc3nc(C(C)(F)F)nn13)CC2` (centres unmarked) [Compound 16, 2-(1,1-Difluoroethyl)-N-(7-methoxy-1,2,3,4-tetrahydronaphthal-en-2-yl)-5-methyl-[1,2,4]triazolo[1,5-a]pyrimidin-7-amine] came in with a solubility (kinetic) at 30 min in series [1] of 12.5 to 25 µg/mL (≈ 33.5 to 67 µM). This molecule also returned a CLint scaled at 1 μM in series [2] of 15 mL/min/kg.
For `Cc1cc(NC2CCc3ccc(Cl)cc3C2)n2nc(C(F)(F)F)nc2n1` (centres unmarked) [Compound 24, N-(7-Chloro-1,2,3,4-tetrahydronaphthalen-2-yl)-5-methyl-2-(trifluoromethyl)-[1,2,4]triazolo[1,5-a]pyrimidin-7-amine] the same measures were 1.6 to 3.1 µg/mL (≈ 4.19 to 8.12 µM) and 7.4 mL/min/kg.
Molecule `Cc1cc(NC2Cc3c(C)ccc(C)c3C2)n2nc(C(C)(F)F)nc2n1` [Compound 32, N-(4,7-Dimethyl-2,3-dihydro-1H-inden-2-yl)-2-(1,1-difluoroethyl)-5-methyl-[1,2,4]triazolo[1,5-a]pyrimidin-7-amine] returned a solubility (kinetic) at 30 min in series [1] of 6.3 to 12.5 µg/mL (≈ 17.6 to 35 µM). In addition, the CLint scaled at 1 μM in series [2] is 138 mL/min/kg.
As for `Cc1cc(NC2CCc3cc(F)ccc3C2)n2nc(C(C)(F)F)nc2n1` (centres unmarked) [Compound 6, 2-(1,1-Difluoroethyl)-N-(6-fluoro-1,2,3,4-tetrahydronaphthalen-2-yl)-5-methyl-[1,2,4]triazolo[1,5-a]pyrimidin-7-amine], the kinetic solubility at 30 min in [1] lay in the range of 6.3 to 12.5 µg/mL (≈ 17.4 to 34.6 µM). In series [2], this molecule displayed a CLint scaled at 1 μM of 12 mL/min/kg.
